Source: ChEMBL document CHEMBL1909046, “DrugMatrix in vitro pharmacology data”

What was measured:
[1] = DRUGMATRIX: Atrial Natriuretic Factor (ANF) radioligand binding (ligand: [125I] ANF (rat)); type: cell membranes, Cavia porcellus, Dunkin-Hartley, Adrenal gland, Membrane; details: Not Active = under 50% inhibition at 10 µM
B2 bradykinin receptor = target: T1, B2 bradykinin receptor (Homo sapiens, UniProt P30411); type: cell membranes, Membrane; details: chem-1; note: in other assays of this panel Not Active means under 50% inhibition at 10 µM
T1 sequence (P30411 whole entry): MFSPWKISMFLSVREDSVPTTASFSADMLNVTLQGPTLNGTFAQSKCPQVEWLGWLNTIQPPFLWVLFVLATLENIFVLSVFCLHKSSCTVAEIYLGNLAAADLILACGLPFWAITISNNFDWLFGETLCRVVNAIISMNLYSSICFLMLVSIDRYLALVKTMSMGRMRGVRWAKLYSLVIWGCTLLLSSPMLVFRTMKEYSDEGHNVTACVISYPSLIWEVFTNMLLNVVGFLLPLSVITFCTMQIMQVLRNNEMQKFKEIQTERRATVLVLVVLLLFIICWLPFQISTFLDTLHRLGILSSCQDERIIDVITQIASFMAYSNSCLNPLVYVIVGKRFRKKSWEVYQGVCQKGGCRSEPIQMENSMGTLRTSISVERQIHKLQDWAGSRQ

[2] = target: T2, Vasoactive intestinal polypeptide receptor 1 (Homo sapiens, UniProt P32241); type: cell membranes, Membrane; details: ht-29; note: in other assays of this panel Not Active means under 50% inhibition at 10 µM
T2 sequence (P32241 whole entry): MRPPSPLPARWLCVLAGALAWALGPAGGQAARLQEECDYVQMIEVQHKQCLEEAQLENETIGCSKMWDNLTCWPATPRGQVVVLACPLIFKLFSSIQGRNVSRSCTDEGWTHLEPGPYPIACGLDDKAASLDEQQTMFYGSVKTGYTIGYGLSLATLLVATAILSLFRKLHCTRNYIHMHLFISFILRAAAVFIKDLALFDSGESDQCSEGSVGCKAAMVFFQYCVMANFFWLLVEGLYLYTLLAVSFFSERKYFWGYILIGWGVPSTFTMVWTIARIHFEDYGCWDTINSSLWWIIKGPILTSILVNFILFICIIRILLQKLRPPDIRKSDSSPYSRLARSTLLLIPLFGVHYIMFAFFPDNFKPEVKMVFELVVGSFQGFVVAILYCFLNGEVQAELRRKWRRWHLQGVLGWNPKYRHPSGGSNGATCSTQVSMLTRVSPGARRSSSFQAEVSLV

[3] = target: T3, Cholecystokinin receptor type A (Homo sapiens, UniProt P32238); type: cell membranes, Membrane; details: 1321-n1; note: in other assays of this panel Not Active means under 50% inhibition at 10 µM
T3 sequence (P32238 whole entry): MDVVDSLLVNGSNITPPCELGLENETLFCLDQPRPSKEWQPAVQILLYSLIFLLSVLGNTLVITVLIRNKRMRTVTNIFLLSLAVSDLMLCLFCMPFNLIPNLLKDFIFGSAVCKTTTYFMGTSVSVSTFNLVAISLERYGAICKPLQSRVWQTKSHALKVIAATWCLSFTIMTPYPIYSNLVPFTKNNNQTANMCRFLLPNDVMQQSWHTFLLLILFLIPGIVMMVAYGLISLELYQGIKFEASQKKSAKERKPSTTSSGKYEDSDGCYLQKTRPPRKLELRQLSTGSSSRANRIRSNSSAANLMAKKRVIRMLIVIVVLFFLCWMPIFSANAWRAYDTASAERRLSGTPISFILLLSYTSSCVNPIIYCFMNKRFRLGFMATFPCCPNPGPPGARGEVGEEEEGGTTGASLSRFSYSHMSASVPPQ

[4] = target: T4, Muscarinic acetylcholine receptor M4 (Homo sapiens, UniProt P08173); type: cell membranes, CHO-K1, Membrane; details: cho-k1; note: in other assays of this panel Not Active means under 50% inhibition at 10 µM
T4 sequence (P08173 whole entry): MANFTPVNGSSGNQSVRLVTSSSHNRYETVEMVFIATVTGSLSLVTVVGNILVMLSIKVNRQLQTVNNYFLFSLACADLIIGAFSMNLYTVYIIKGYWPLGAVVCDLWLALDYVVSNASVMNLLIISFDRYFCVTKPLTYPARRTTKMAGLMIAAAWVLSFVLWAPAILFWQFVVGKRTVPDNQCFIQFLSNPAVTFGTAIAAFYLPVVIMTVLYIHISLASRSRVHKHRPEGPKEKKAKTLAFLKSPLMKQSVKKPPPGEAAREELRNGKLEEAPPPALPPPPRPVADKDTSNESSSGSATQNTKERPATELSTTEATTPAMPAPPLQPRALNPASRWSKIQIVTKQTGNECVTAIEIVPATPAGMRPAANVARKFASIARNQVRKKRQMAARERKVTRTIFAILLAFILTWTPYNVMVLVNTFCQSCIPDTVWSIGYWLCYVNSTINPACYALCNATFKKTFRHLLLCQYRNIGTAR

Progesterone receptor = target: T5, Progesterone receptor (Bos taurus, UniProt Q690N0); test: DRUGMATRIX: Progesterone radioligand binding (ligand: [3H] R-5020); type: tissue-based, Uterus; details: Not Active = under 50% inhibition at 10 µM
T5 sequence (Q690N0 whole entry): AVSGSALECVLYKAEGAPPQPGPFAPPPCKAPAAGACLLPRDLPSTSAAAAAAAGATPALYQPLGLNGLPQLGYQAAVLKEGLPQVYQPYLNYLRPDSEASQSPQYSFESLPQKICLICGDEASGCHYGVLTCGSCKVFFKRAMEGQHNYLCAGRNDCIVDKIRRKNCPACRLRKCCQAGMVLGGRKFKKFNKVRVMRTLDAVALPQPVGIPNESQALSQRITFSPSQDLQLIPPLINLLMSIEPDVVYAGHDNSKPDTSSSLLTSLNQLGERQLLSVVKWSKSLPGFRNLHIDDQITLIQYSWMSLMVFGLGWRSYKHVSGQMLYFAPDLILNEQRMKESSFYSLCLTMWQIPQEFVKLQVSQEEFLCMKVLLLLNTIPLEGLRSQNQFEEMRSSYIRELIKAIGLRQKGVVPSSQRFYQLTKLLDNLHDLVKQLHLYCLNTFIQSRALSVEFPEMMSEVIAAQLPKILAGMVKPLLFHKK

Cytochrome P450 2D6 = Cytochrome P450 2D6 (Homo sapiens, UniProt P10635); details: bti-tn-5b1-4; note: in other assays of this panel Not Active means under 50% inhibition at 10 µM
Sequence of Cytochrome P450 2D6 (P10635 whole entry): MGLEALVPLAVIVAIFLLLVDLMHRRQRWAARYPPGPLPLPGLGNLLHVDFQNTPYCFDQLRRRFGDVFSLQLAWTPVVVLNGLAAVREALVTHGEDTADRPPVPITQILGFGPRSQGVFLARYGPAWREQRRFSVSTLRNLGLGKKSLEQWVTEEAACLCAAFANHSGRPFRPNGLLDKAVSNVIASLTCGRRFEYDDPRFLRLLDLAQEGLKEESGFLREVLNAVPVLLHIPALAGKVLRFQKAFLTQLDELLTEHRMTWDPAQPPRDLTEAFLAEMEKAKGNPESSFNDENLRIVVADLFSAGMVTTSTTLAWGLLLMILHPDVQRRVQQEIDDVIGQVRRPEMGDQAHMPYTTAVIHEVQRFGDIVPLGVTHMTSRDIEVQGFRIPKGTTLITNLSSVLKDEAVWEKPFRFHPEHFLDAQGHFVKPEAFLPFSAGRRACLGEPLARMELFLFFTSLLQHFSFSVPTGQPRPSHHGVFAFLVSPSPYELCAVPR

CC(C)NCC(O)c1ccc(O)c(O)c1 (stereo unspecified) [ISOPROTERENOL]
Not Active: IC50 [1] | Ki [1] | IC50 (B2 bradykinin receptor) | IC50 [2] | IC50 [3] | IC50 [4] | IC50 (Progesterone receptor) | IC50 (Cytochrome P450 2D6) | Ki (Cytochrome P450 2D6)

NC(=O)N1C(=O)/C(=C(\O)c2cccs2)c2cc(Cl)ccc21 [TENIDAP]
Not Active: IC50 [1] | Ki [1] | IC50 (B2 bradykinin receptor) | IC50 [2] | IC50 [3] | IC50 [4] | IC50 (Progesterone receptor) | IC50 (Cytochrome P450 2D6) | Ki (Cytochrome P450 2D6)

NC1CCN(c2nc3c(cc2F)c(=O)c(C(=O)O)cn3-c2ccc(F)cc2F)C1 (stereo unspecified) [TOSUFLOXACIN]
Not Active: IC50 [1] | Ki [1] | IC50 (B2 bradykinin receptor) | IC50 [2] | IC50 [3] | IC50 [4] | IC50 (Progesterone receptor) | IC50 (Cytochrome P450 2D6) | Ki (Cytochrome P450 2D6)

N#Cc1ccc(C(c2ccc(C#N)cc2)n2cncn2)cc1 [LETROZOLE]
Not Active: IC50 [1] | Ki [1] | IC50 (B2 bradykinin receptor) | IC50 [2] | IC50 [3] | IC50 [4] | IC50 (Progesterone receptor) | IC50 (Cytochrome P450 2D6) | Ki (Cytochrome P450 2D6)

O=C(Nc1ccc(Br)cc1)c1cc(Br)cc(Br)c1O [TRIBROMSALAN]
Not Active: IC50 [1] | Ki [1] | IC50 (B2 bradykinin receptor) | IC50 [2] | IC50 [3] | IC50 [4] | IC50 (Progesterone receptor) | IC50 (Cytochrome P450 2D6) | Ki (Cytochrome P450 2D6)

O=C1Nc2ccc(Cl)cc2C(c2ccccc2Cl)=NC1O (stereo unspecified) [LORAZEPAM]
Not Active: IC50 [1] | Ki [1] | IC50 (B2 bradykinin receptor) | IC50 [2] | IC50 [3] | IC50 [4] | IC50 (Progesterone receptor) | IC50 (Cytochrome P450 2D6) | Ki (Cytochrome P450 2D6)

CC(C)Oc1ccc2c(=O)c(-c3ccccc3)coc2c1 [IPRIFLAVONE]
Not Active: IC50 [1] | Ki [1] | IC50 (B2 bradykinin receptor) | IC50 [2] | IC50 [3] | IC50 [4] | IC50 (Progesterone receptor) | IC50 (Cytochrome P450 2D6) | Ki (Cytochrome P450 2D6)

CNC1(c2ccccc2Cl)CCCCC1=O (stereo unspecified) [KETAMINE]
Not Active: IC50 [1] | Ki [1] | IC50 (B2 bradykinin receptor) | IC50 [2] | IC50 [3] | IC50 [4] | IC50 (Progesterone receptor) | IC50 (Cytochrome P450 2D6) | Ki (Cytochrome P450 2D6)

O=C(O)c1cn(-c2ccc(F)cc2)c2cc(N3CCNCC3)c(F)cc2c1=O [SARAFLOXACIN]
Not Active: IC50 [1] | Ki [1] | IC50 (B2 bradykinin receptor) | IC50 [2] | IC50 [3] | IC50 [4] | IC50 (Progesterone receptor) | IC50 (Cytochrome P450 2D6) | Ki (Cytochrome P450 2D6)

SODIUM ORTHOVANAD
Not Active: IC50 [1] | Ki [1] | IC50 (B2 bradykinin receptor) | Ki (B2 bradykinin receptor) | IC50 [2] | Ki [2] | IC50 [3] | Ki [3] | IC50 [4] | Ki [4] | IC50 (Progesterone receptor) | Ki (Progesterone receptor) | IC50 (Cytochrome P450 2D6) | Ki (Cytochrome P450 2D6)

Cn1c(=O)c2nc[nH]c2n(C)c1=O.O [THEOPHYLLINE]
Not Active: IC50 [1] | Ki [1] | IC50 (B2 bradykinin receptor) | IC50 [2] | IC50 [3] | IC50 [4] | IC50 (Progesterone receptor) | IC50 (Cytochrome P450 2D6) | Ki (Cytochrome P450 2D6)

CC[C@@H](C(=O)[C@@H](C)[C@@H](O)[C@H](C)[C@@H]1O[C@@H]([C@@H](CC)C(=O)O)CC[C@@H]1C)[C@H]1O[C@]2(C=C[C@@H](O)[C@]3(CC[C@@](C)([C@H]4CC[C@](O)(CC)[C@H](C)O4)O3)O2)[C@H](C)C[C@@H]1C [SALINOMYCIN]
Not Active: IC50 [1] | Ki [1] | IC50 (B2 bradykinin receptor) | IC50 [2] | IC50 [3] | IC50 [4] | IC50 (Progesterone receptor) | IC50 (Cytochrome P450 2D6) | Ki (Cytochrome P450 2D6)

CS(=O)(=O)c1ccc([C@@H](O)[C@@H](CO)NC(=O)C(Cl)Cl)cc1 [THIAMPHENICOL]
Not Active: IC50 [1] | Ki [1] | IC50 (B2 bradykinin receptor) | IC50 [2] | IC50 [3] | IC50 [4] | IC50 (Progesterone receptor) | IC50 (Cytochrome P450 2D6) | Ki (Cytochrome P450 2D6)

O=C(Oc1ccccc1C(=O)O)c1ccccc1O [SALSALATE]
Not Active: IC50 [1] | Ki [1] | IC50 (B2 bradykinin receptor) | IC50 [2] | IC50 [3] | IC50 [4] | IC50 (Progesterone receptor) | IC50 (Cytochrome P450 2D6) | Ki (Cytochrome P450 2D6)
